From patent US9328057B2, “Chiral arylketones in the treatment of neutrophil-dependent inflammatory diseases” (DOMPE' FARMACEUTICI S.P.A., priority 2002, dated 2016)

Tested on: chemiotaxis of human PMN leucocytes (PMNs) stimulated by interleukin 8
Experiment: chemiotaxis of human PMNs stimulated by IL-8 (48-well microchamber)
Assay type: cell-based
Details: Leucocyte, 10 min, IL-8 10 ng/mL, 10 minutes incubation at 37° C., read-out: IC50 (dose inhibiting 50% of the effect), chemiotaxis induced by IL-8 (converted)
Protocol: For evaluation of the compounds of the invention, polymorphonucleated blood cells were used obtained from heparinized blood of healthy adult volunteers by means of sedimentation on dextran. The mononucleated cells were removed by means of Ficoll/Hypaque, whilst the red blood cells were eliminated by treatment with hypotonic solutions. The cell vitality of the polymorphonucleated leucocytes (PMNs) was calculated by means of exclusion with Turk and Trypan Blue whilst after staining with Diff Quinck the percentage of the PM-nucleates on the cytocentrifugate was estimated (for details of the experimental techniques used see W. J. Ming et al., J. Immunol., 138, 1469, 1987). In each of the in vitro experiments, time periods of 10 minutes were used for the incubation of the PMNs with the compounds of the invention, operating at a temperature of 37° C.
In the experiments of chemiotaxis and in those designed for measuring the cytosol levels of the Ca^2+ ion, human recombinant IL-8 (Pepro Tech.) was used as stimulant: the liophilized protein was dissolved in HBSS (Hank's balanced salts solution) at a concentration of 100 ng/mL and was used after dilution in HBSS down to concentrations of 10 ng/mL in the chemiotaxis experiments and at the concentration of 25-50 ng/mL in the evaluation of the modifications of [Ca^2+]. […]

Compound: CC(=O)[C@H](C)c1ccc(CC(C)C)cc1 [R(−)-3-[(4′-isobutyl)phenyl]butan-2-one, (R)(−)-3-[(4′-isobutyl)phenyl]butan-2-one]
- IC50: 0.5 nM
